Columns and labels:
human Nav1.5 = biological target: T1, human Nav1.5 (Homo sapiens, UniProt Q14524); assay: Amplification of Nav1.5-derived voltage-dependent sodium current (Nav1.5 current), cell line stably expressing human Nav1.5, automated patch clamp; assay type: cell-based
T1 construct: expressed in transfected cells; host or cells: CHO-K1 (T-REx System, ThermoFisher Scientific)

human Nav1.1 = biological target: T2, human Nav1.1 (Homo sapiens, UniProt P35498); assay: Amplification of Nav1.1-derived voltage-dependent sodium current (Nav1.1 current), cell line stably expressing human Nav1.1, automated patch clamp; assay type: cell-based
T2 construct: host or cells: HEK293
Summary of the method: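 Amplification rate (%) is 100 × post-compound/pre-compound Nav1.1 peak current or AUC, minus 100. Ramp-evoked sodium currents were recorded by automated patch clamp in a human Nav1.1 HEK293 stable line, restricted to cells exceeding 500 pA, with compounds added in extracellular solution containing 1% DMSO.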

[1] = 10 μmol/L compound, change of the area under the curve of Nav1.5 current (Test Result 1), read-out: Nav1.5 current amplification rate (%)
[2] = 10 μmol/L compound, change of the area under the curve of Nav1.1 current (Test Result 1), read-out: Nav1.1 current amplification rate (%)
[3] = 10 μmol/L compound, change of the area under the curve of Nav1.5 current (Test Result 1)
[4] = 10 μmol/L compound, change of the area under the curve of Nav1.1 current (Test Result 1)
[5] = compound 1 μmol/L, CHO-K1 stably expressing human Nav1.5
[6] = compound 1 μmol/L, HEK293 stably expressing human Nav1.1
[7] = compound 1 μmol/L, CHO-K1 stably expressing human Nav1.5, read-out: Nav1.5 current amplification rate (%)
[8] = compound 1 μmol/L, HEK293 stably expressing human Nav1.1, read-out: Nav1.1 current amplification rate (%)
[9] = compound 3 μmol/L, CHO-K1 stably expressing human Nav1.5
[10] = compound 3 μmol/L, HEK293 stably expressing human Nav1.1

T1 sequence (Q14524 1-2015 isoform Q14524-2): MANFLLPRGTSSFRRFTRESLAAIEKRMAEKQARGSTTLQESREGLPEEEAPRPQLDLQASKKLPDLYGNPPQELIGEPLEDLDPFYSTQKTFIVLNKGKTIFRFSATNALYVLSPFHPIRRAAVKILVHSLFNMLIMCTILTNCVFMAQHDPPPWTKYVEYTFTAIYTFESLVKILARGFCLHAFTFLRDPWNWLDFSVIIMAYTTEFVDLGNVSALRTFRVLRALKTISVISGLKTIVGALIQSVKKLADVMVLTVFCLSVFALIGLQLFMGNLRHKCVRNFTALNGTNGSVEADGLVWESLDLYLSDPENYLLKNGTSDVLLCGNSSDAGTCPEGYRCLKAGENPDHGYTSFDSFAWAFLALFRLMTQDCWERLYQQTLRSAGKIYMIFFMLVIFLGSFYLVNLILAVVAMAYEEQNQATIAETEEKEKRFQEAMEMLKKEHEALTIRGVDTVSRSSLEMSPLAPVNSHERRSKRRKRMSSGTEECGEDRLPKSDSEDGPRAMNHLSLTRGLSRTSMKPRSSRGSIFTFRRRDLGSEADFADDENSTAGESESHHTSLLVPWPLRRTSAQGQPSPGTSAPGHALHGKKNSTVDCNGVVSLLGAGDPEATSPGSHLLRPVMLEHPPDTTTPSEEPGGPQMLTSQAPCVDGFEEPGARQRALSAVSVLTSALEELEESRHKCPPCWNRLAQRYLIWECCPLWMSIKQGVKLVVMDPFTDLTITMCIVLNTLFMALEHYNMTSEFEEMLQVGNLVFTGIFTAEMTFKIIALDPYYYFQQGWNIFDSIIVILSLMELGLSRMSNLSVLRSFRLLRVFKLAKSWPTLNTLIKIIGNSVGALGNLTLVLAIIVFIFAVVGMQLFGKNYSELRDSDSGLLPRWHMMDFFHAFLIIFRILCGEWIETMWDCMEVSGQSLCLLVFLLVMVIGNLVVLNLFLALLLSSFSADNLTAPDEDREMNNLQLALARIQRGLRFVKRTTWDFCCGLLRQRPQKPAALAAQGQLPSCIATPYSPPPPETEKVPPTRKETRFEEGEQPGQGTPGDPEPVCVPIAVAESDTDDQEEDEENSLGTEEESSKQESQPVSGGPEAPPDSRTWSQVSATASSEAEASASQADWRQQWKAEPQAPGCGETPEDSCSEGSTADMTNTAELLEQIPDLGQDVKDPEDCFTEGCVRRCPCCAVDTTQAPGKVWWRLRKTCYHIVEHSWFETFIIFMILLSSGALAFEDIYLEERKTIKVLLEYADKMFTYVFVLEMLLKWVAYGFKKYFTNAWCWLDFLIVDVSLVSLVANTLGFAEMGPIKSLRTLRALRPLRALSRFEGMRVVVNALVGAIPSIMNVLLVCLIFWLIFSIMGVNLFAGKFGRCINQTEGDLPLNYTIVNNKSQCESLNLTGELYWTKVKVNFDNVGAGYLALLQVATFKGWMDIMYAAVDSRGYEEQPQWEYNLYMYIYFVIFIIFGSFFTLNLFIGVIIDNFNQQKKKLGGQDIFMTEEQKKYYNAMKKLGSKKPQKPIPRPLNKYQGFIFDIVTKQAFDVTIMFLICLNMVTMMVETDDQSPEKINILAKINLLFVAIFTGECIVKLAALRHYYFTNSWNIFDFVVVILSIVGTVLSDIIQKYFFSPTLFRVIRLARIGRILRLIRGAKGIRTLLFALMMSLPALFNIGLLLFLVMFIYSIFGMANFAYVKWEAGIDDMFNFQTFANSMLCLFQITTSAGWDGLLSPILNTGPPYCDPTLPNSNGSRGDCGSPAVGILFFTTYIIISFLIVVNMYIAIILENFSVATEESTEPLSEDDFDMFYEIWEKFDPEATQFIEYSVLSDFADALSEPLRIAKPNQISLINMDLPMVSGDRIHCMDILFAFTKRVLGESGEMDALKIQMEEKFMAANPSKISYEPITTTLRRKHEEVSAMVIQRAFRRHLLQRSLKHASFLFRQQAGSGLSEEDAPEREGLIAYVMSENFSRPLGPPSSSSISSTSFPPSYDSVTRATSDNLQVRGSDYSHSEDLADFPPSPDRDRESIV

O=C(Cn1nc(N2CCC3(CCC3)CC2)ccc1=O)Nc1ccc2scnc2c1 [Example 127]
activation at 10 µM (human Nav1.5; [1]): 58% | activation at 10 µM (human Nav1.1; [2]): 229%

CC1CCN(c2ccc(=O)n(CC(=O)Nc3ccn4nccc4c3)n2)CC1 [Example 71]
Nav1.5 current amplification rate (%) (human Nav1.5; [3]): 13% | Nav1.1 current amplification rate (%) (human Nav1.1; [4]): 131%

O=C(Cn1nc(N2CCC3(CCCC3)C2)ccc1=O)Nc1ccn2nccc2c1 [Example 169]
activation at 10 µM (human Nav1.5; [1]): 43% | activation at 10 µM (human Nav1.1; [2]): 155%

O=C(Cn1nc(N2CCC3(CCC3)CC2)ccc1=O)N1CCc2cnccc21 [Example 185]
activation at 10 µM (human Nav1.5; [1]): 2% | activation at 10 µM (human Nav1.1; [2]): 22%

COc1cc(C2=CCC(C)(C)CC2)nn(CC(=O)N2CCc3c(N4CCOCC4)cccc32)c1=O [Example 468]
Nav1.5 current amplification rate (%) (human Nav1.5; [5]): 75% | Nav1.1 current amplification rate (%) (human Nav1.1; [6]): 275%

O=C(Cn1nc(C2=CCCCC2)ccc1=O)N1CCc2c(C3=CCOCC3)cccc21 [Example 528]
activation at 1 µM (human Nav1.5; [7]): 24% | activation at 1 µM (human Nav1.1; [8]): 198%

CC1CC=C(c2ccc(=O)n(CC(=O)N3CCc4c(CNC5COC5)cccc43)n2)CC1 (racemic) [Example 313]
Nav1.5 current amplification rate (%) (human Nav1.5; [5]): 133% | Nav1.1 current amplification rate (%) (human Nav1.1; [6]): 84%

O=C(Cn1nc(C2=CCC(F)(F)CC2)ccc1=O)N1CCc2c(-c3ccnnc3)cccc21 [Example 527]
activation at 1 µM (human Nav1.5; [7]): 36% | activation at 1 µM (human Nav1.1; [8]): 324%

CC1CC=C(c2ccc(=O)n(CC(=O)N3CCc4c(Cn5cncn5)cccc43)n2)CC1 (racemic) [Example 294]
Nav1.5 current amplification rate (%) (human Nav1.5; [5]): 427% | Nav1.1 current amplification rate (%) (human Nav1.1; [6]): 271%

CC1CC=C(c2ccc(=O)n(CC(=O)Nc3cc(F)c4ocnc4c3)n2)CC1 (racemic) [Example 241]
Nav1.5 current amplification rate (%) (human Nav1.5; [3]): 26% | Nav1.1 current amplification rate (%) (human Nav1.1; [4]): 260%

CC1CC=C(c2ccc(=O)n(CC(=O)Nc3ccn4cncc4c3)n2)CC1 (racemic) [Example 338]
Nav1.5 current amplification rate (%) (human Nav1.5; [5]): 49% | Nav1.1 current amplification rate (%) (human Nav1.1; [6]): 241%

CC1CC=C(c2ccc(=O)n(CC(=O)Nc3ccc4ocnc4c3)n2)CC1 (centres unmarked) [Example 531, N-(1,3-benzooxazol-5-yl)-2-[3-(4-methylcyclohex-1-en-1-yl)-6-oxopyridazin-1(6H)-yl]acetamide]
activation at 1 µM (human Nav1.5; [7]): 8% | activation at 1 µM (human Nav1.1; [8]): 183%

Cc1c(N2CCC(C)(C)CC2)nn(CC(=O)Nc2ccn3ccnc3c2)c(=O)c1C [Example 178]
activation at 10 µM (human Nav1.5; [1]): 1% | activation at 10 µM (human Nav1.1; [2]): 44%

CC1CC=C(c2ccc(=O)n(CC(=O)N3CCc4c(CN5CCOCC5)cccc43)n2)CC1 (racemic) [Example 270]
Nav1.5 current amplification rate (%) (human Nav1.5; [9]): 78% | Nav1.1 current amplification rate (%) (human Nav1.1; [10]): 481%

Cc1cc(=O)n(CC(=O)Nc2ccc3c(c2)OCC3)nc1N1CCC2(CCC2)C1 [Example 203]
activation at 10 µM (human Nav1.5; [1]): 12% | activation at 10 µM (human Nav1.1; [2]): 267%

COc1cc(N2CCC3(CCC3)C2)nn(CC(=O)N2CCc3c(N4CCOCC4)cccc32)c1=O [Example 227]
activation at 3 µM (human Nav1.5; compound 3 μmol/L, CHO-K1 stably expressing human Nav1.5, read-out: Nav1.5 current amplification rate (%)): 17% | activation at 3 µM (human Nav1.1; compound 3 μmol/L, HEK293 stably expressing human Nav1.1, read-out: Nav1.1 current amplification rate (%)): 303%

CC1CCN(c2ccc(=O)n(CC(=O)Nc3ccc4oc(=O)n(C)c4c3)n2)CC1 [Example 81]
Nav1.5 current amplification rate (%) (human Nav1.5; [3]): 21% | Nav1.1 current amplification rate (%) (human Nav1.1; [4]): 69%

CC1CCN(c2ccc(=O)n(CC(=O)Nc3cc(Cl)c4ocnc4c3)n2)CC1 [Example 94]
Nav1.5 current amplification rate (%) (human Nav1.5; [3]): 29% | Nav1.1 current amplification rate (%) (human Nav1.1; [4]): 198%

CC1CC=C(c2ccc(=O)n(CC(=O)N3CCc4c(CN5CC6CC5CO6)cccc43)n2)CC1 (mixture of isomers) [Example 278]
Nav1.5 current amplification rate (%) (human Nav1.5; [5]): 27% | Nav1.1 current amplification rate (%) (human Nav1.1; [6]): 204%

O=C(Cn1nc(C2=CCC(C(F)(F)F)CC2)ccc1=O)Nc1ccc2ocnc2c1 (centres unmarked) [Example 446]
Nav1.5 current amplification rate (%) (human Nav1.5; [3]): 10% | Nav1.1 current amplification rate (%) (human Nav1.1; [4]): 333%

CC1CC=C(c2ccc(=O)n(CC(=O)N3CCc4c(-c5ccnn5C)cccc43)n2)CC1 (racemic) [Example 251]
Nav1.5 current amplification rate (%) (human Nav1.5; [9]): 15% | Nav1.1 current amplification rate (%) (human Nav1.1; [10]): 307%

COc1cc(NC(=O)Cn2nc(N3CCC(C)CC3)ccc2=O)ccn1 [Example 74]
Nav1.5 current amplification rate (%) (human Nav1.5; [3]): −2% | Nav1.1 current amplification rate (%) (human Nav1.1; [4]): 70%

CC1CC=C(c2ccc(=O)n(CC(=O)N3CCc4c(C5CCN(C)C5)cccc43)n2)CC1 (mixture of isomers) [Example 269]
Nav1.5 current amplification rate (%) (human Nav1.5; [9]): 266% | Nav1.1 current amplification rate (%) (human Nav1.1; [10]): 127%

COc1cc(=O)n(CC(=O)Nc2ccn3ccnc3c2)nc1C1=CCC(C)(C)CC1 [Example 459]
Nav1.5 current amplification rate (%) (human Nav1.5; [3]): 21% | Nav1.1 current amplification rate (%) (human Nav1.1; [4]): 118%

O=C(Cn1nc(-c2cc(Cl)cs2)ccc1=O)Nc1ccc2ocnc2c1 [Example 454]
Nav1.5 current amplification rate (%) (human Nav1.5; [3]): 35% | Nav1.1 current amplification rate (%) (human Nav1.1; [4]): 157%

— patent US20220347175A1, “PYRIDAZINONE DERIVATIVE” (Sumitomo Dainippon Pharma Co., Ltd., priority 2018, published 2022)
